“And” between values parts separate entries of the source, which are not always exact repeats. Equal entries are not always repeated.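 Step 1: Grow cells in 96-well plates. Step 2: Expose to compound for 48 hours at 5 concentrations. Step 3: Interpolate endpoints linearly; if unreached, use highest concentration. GI50 = concentration required for 50% inhibition of growth. At the TGI there is no net growth.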
How the values were obtained:
Experiment in all cases: inhibition of tumour cell growth, NCI panel, 48 h
SR leukemia = test system: SR leukemia
UO-31 renal = test system: UO-31 renal
CAKI-1 renal = test system: CAKI-1 renal
LOX IMVI melanoma = test system: LOX IMVI melanoma
K-562 leukemia = test system: K-562 leukemia
786-0 renal = test system: 786-0 renal
PC-3 prostate = test system: PC-3 prostate
SN12C renal = test system: SN12C renal
HCT-116 colon = test system: HCT-116 colon
OVCAR-3 ovarian = test system: OVCAR-3 ovarian

Compound: O=C1/C(=C/c2cccc(Br)c2)COc2ccc(O)cc21
- GI50 (SR leukemia): 0.47 µM
- TGI (SR leukemia): 5.2 µM
- GI50 (UO-31 renal): 1.51 µM
- TGI (UO-31 renal): 3.46 µM
- GI50 (CAKI-1 renal): 1.83 µM
- TGI (CAKI-1 renal): 5.12 µM
- GI50 (LOX IMVI melanoma): 1.7 µM
- TGI (LOX IMVI melanoma): 3.41 µM
- GI50 (K-562 leukemia): 1.24 µM
- TGI (K-562 leukemia): 11 µM
- GI50 (786-0 renal): 2.08 µM
- TGI (786-0 renal): 5.43 µM
- GI50 (PC-3 prostate): 2.04 µM
- TGI (PC-3 prostate): 5.57 µM
- GI50 (SN12C renal): 1.85 µM
- TGI (SN12C renal): 4.28 µM
- GI50 (HCT-116 colon): 1.45 µM
- TGI (HCT-116 colon): 2.99 µM
- GI50 (OVCAR-3 ovarian): 1.82 µM
- TGI (OVCAR-3 ovarian): 3.89 µM

Compound: COc1cc2ncn(-c3cc(OCc4ccccc4C(F)(F)F)c(C(=O)N(C)C)s3)c2cc1OC
- GI50 (SR leukemia): > 25 µM
- TGI (SR leukemia): > 25 µM
- GI50 (UO-31 renal): 9.69 µM
- TGI (UO-31 renal): > 25 µM
- GI50 (CAKI-1 renal): > 25 µM
- TGI (CAKI-1 renal): > 25 µM
- GI50 (LOX IMVI melanoma): > 25 µM
- TGI (LOX IMVI melanoma): > 25 µM
- GI50 (K-562 leukemia): > 21.3 µM
- TGI (K-562 leukemia): > 25 µM
- GI50 (786-0 renal): > 25 µM
- TGI (786-0 renal): > 25 µM
- GI50 (PC-3 prostate): > 19 µM
- TGI (PC-3 prostate): > 25 µM
- GI50 (SN12C renal): 24.6 µM
- TGI (SN12C renal): > 25 µM
- GI50 (HCT-116 colon): > 25 µM
- TGI (HCT-116 colon): > 25 µM
- GI50 (OVCAR-3 ovarian): > 21.8 µM
- TGI (OVCAR-3 ovarian): > 25 µM

Compound: CC(=O)c1ccc2c(c1)C1C=CCC1[C@H](c1cc3c(cc1Br)OCO3)N2 (stereo partly specified)
- GI50 (SR leukemia): 0.519 µM
- TGI (SR leukemia): 6.15 µM
- GI50 (UO-31 renal): 1.89 µM
- TGI (UO-31 renal): 34.9 µM
- GI50 (CAKI-1 renal): 0.512 µM
- TGI (CAKI-1 renal): 20.5 µM
- GI50 (LOX IMVI melanoma): 1.31 µM
- TGI (LOX IMVI melanoma): 2.62 µM
- GI50 (K-562 leukemia): 0.794 µM
- GI50 (786-0 renal): 1.53 µM
- TGI (786-0 renal): 15.3 µM
- GI50 (PC-3 prostate): 0.636 µM
- TGI (PC-3 prostate): 7.04 µM
- GI50 (SN12C renal): 1.64 µM
- TGI (SN12C renal): > 33 µM
- GI50 (HCT-116 colon): 1.18 µM
- TGI (HCT-116 colon): 14.3 µM
- GI50 (OVCAR-3 ovarian): 0.48 µM
- TGI (OVCAR-3 ovarian): 1.08 µM

Compound: O=C(/C=C/c1ccccc1)C(Br)C(Br)c1ccccc1 (stereo unspecified)
- GI50 (SR leukemia): 0.455 µM
- TGI (SR leukemia): 2.59 µM
- GI50 (UO-31 renal): 1.19 µM
- TGI (UO-31 renal): 2.48 µM
- GI50 (CAKI-1 renal): 1.24 µM
- TGI (CAKI-1 renal): 2.6 µM
- GI50 (LOX IMVI melanoma): 1.52 µM
- TGI (LOX IMVI melanoma): 2.91 µM
- GI50 (K-562 leukemia): 0.303 µM
- TGI (K-562 leukemia): 1.25 µM
- GI50 (786-0 renal): 1.91 µM
- TGI (786-0 renal): 4.31 µM
- GI50 (PC-3 prostate): 2.69 µM
- TGI (PC-3 prostate): 8.69 µM
- GI50 (SN12C renal): 2 µM
- TGI (SN12C renal): 4.65 µM
- GI50 (HCT-116 colon): 0.2 µM
- TGI (HCT-116 colon): 0.43 µM
- GI50 (OVCAR-3 ovarian): 1.17 µM
- TGI (OVCAR-3 ovarian): 2.45 µM

Compound: O=C(NOC[C@H](O)CO)c1ccc(F)c(F)c1Nc1ccc(I)cc1F
- GI50 (SR leukemia): > 10 µM
- TGI (SR leukemia): > 100 µM
- GI50 (UO-31 renal): 0.302 µM and 0.0357 µM
- TGI (UO-31 renal): > 72.2 µM
- TGI (CAKI-1 renal): > 100 µM
- GI50 (LOX IMVI melanoma): < 0.0127 µM and 0.0397 µM
- TGI (LOX IMVI melanoma): 19.9 µM and > 6.5 µM
- TGI (K-562 leukemia): > 100 µM
- GI50 (786-0 renal): 21.6 µM and > 10 µM
- TGI (786-0 renal): > 100 µM
- GI50 (PC-3 prostate): 62.6 µM and > 10 µM
- TGI (PC-3 prostate): > 100 µM
- TGI (SN12C renal): > 100 µM
- GI50 (HCT-116 colon): 0.0265 µM and 0.0182 µM
- TGI (HCT-116 colon): > 100 µM
- GI50 (OVCAR-3 ovarian): 37.6 µM and > 10 µM
- TGI (OVCAR-3 ovarian): > 100 µM

Compound: COc1cc(F)c(F)c(Nc2ccc(I)cc2F)c1NS(=O)(=O)C1(C[C@H](O)CO)CC1
- GI50 (SR leukemia): 6.56 µM
- TGI (SR leukemia): > 10 µM
- GI50 (UO-31 renal): 0.295 µM
- TGI (UO-31 renal): > 10 µM
- GI50 (CAKI-1 renal): 0.44 µM
- TGI (CAKI-1 renal): > 10 µM
- GI50 (LOX IMVI melanoma): 0.556 µM
- TGI (LOX IMVI melanoma): > 10 µM
- GI50 (K-562 leukemia): 1.34 µM
- TGI (K-562 leukemia): > 10 µM
- GI50 (786-0 renal): > 4.02 µM
- TGI (786-0 renal): > 10 µM
- GI50 (PC-3 prostate): > 6.75 µM
- TGI (PC-3 prostate): > 10 µM
- GI50 (SN12C renal): 1.9 µM
- TGI (SN12C renal): > 10 µM
- GI50 (HCT-116 colon): 0.201 µM
- TGI (HCT-116 colon): > 10 µM
- GI50 (OVCAR-3 ovarian): > 6.76 µM
- TGI (OVCAR-3 ovarian): > 10 µM

Compound: [C](#Cc1ccccc1)[Hg][C]#Cc1ccccc1
- GI50 (SR leukemia): 23.5 µM
- TGI (SR leukemia): > 100 µM
- GI50 (UO-31 renal): 32.5 µM
- TGI (UO-31 renal): 74.6 µM
- GI50 (CAKI-1 renal): 20 µM
- TGI (CAKI-1 renal): 41.7 µM
- GI50 (LOX IMVI melanoma): 25.4 µM
- TGI (LOX IMVI melanoma): 63.7 µM
- GI50 (K-562 leukemia): 13.2 µM
- TGI (K-562 leukemia): > 100 µM
- GI50 (786-0 renal): 30.6 µM
- TGI (786-0 renal): > 100 µM
- GI50 (PC-3 prostate): 30.6 µM
- TGI (PC-3 prostate): 87.5 µM
- GI50 (SN12C renal): 30.1 µM
- TGI (SN12C renal): 73.3 µM
- GI50 (HCT-116 colon): 72.5 µM
- TGI (HCT-116 colon): > 100 µM
- GI50 (OVCAR-3 ovarian): 39.8 µM
- TGI (OVCAR-3 ovarian): > 100 µM

Compound: COc1ccccc1C#Cc1ccccc1C#CCCCCO
- GI50 (SR leukemia): 1.01 µM
- TGI (SR leukemia): 64.4 µM
- GI50 (UO-31 renal): 16.8 µM
- TGI (UO-31 renal): 32.8 µM
- GI50 (CAKI-1 renal): 19.7 µM
- TGI (CAKI-1 renal): 42.7 µM
- GI50 (LOX IMVI melanoma): 17.9 µM
- TGI (LOX IMVI melanoma): 36 µM
- GI50 (K-562 leukemia): 15.5 µM
- TGI (K-562 leukemia): > 100 µM
- GI50 (786-0 renal): 13.6 µM
- TGI (786-0 renal): 29.7 µM
- GI50 (PC-3 prostate): 15.4 µM
- TGI (PC-3 prostate): 42.2 µM
- GI50 (SN12C renal): 17.5 µM
- TGI (SN12C renal): 34.5 µM
- GI50 (HCT-116 colon): 16 µM
- TGI (HCT-116 colon): 36.3 µM
- GI50 (OVCAR-3 ovarian): 19.8 µM
- TGI (OVCAR-3 ovarian): 47.2 µM

Reference: PubChem BioAssay (NCI)
